Values joined by “and” are separate entries in the source; they are usually repeats but may differ in a detail not shown here. Equal entries are not always repeated.
Columns and labels:
A/PR/8/34 virus = experiment: Influenza A viral growth assay (viral titer of culture media); assay type: cell-based, influenza A H1N1 virus; set-up: viral titer of culture media, individual replicate / viral titer of culture media, ave: unit not given here; conditions: A/PR/8/34 (PR8), 12.5uM; for viral titer of culture media, ave: average of #1-3 exp (n=9); for viral titer of culture media, individual replicate: replicates of #1-3 exp
A/WSN/33 virus = experiment: as above; assay type: cell-based, influenza A H1N1 virus; conditions: A/WSN/33 (WSN), 12.5uM; for viral titer of culture media, ave: average of #1-3 exp (n=9); for viral titer of culture media, individual replicate: replicates of #1-3 exp

| SMILES | viral titer of culture media, ave (A/PR/8/34 virus; 12h) | viral titer of culture media, individual replicate (A/PR/8/34 virus; 12h) | viral titer of culture media, ave (A/PR/8/34 virus; 24h) | viral titer of culture media, individual replicate (A/PR/8/34 virus; 24h) | viral titer of culture media, ave (A/PR/8/34 virus; 48h) | viral titer of culture media, individual replicate (A/PR/8/34 virus; 48h) | viral titer of culture media, ave (A/PR/8/34 virus; 72h) | viral titer of culture media, individual replicate (A/PR/8/34 virus; 72h) | viral titer of culture media, ave (A/WSN/33 virus; 12h) | viral titer of culture media, individual replicate (A/WSN/33 virus; 12h) | viral titer of culture media, ave (A/WSN/33 virus; 24h) | viral titer of culture media, individual replicate (A/WSN/33 virus; 24h) | viral titer of culture media, ave (A/WSN/33 virus; 48h) | viral titer of culture media, individual replicate (A/WSN/33 virus; 48h) | viral titer of culture media, ave (A/WSN/33 virus; 72h) | viral titer of culture media, individual replicate (A/WSN/33 virus; 72h) |
| --- | --- | --- | --- | --- | --- | --- | --- | --- | --- | --- | --- | --- | --- | --- | --- | --- |
| C=C[C@]1(C)CC[C@H](C(=C)C)[C@@H](c2ccc(O)cc2)C1 [(1R,3R,4R)-cyclobakuchiol A] | 31111.1 | 90000 and 60000 and 30000 (2×) and 10000 (3×) and 20000 (2×) | 25555.6 | 40000 and 30000 (3×) and 10000 (3×) and 50000 and 20000 | 28888.9 | 50000 (2×) and 30000 (2×) and 10000 (2×) and 20000 (2×) and 40000 | 20000 | 10000 (6×) and 50000 and 30000 and 40000 | 10300 | 300 and 1400 and 1000 and 40000 and 10000 (5×) | 22944444 | 2600000 and 3900000 and 1000000 and 60000000 and 10000000 and 9000000 and 20000000 and 30000000 and 70000000 | 177111111 | 50000000 and 54000000 and 10000000 and 210000000 (2×) and 230000000 and 190000000 and 380000000 and 260000000 | 106555556 | 10000000 (2×) and 7000000 and 200000000 and 150000000 (2×) and 60000000 and 330000000 and 42000000 |
| C=C[C@]1(C)CC[C@H](C(C)(C)O)[C@@H](c2ccc(O)cc2)C1 [(1R,3R,4R)-cyclobakuchiol C] | 33333.3 | 40000 and 60000 (2×) and 30000 (2×) and 10000 (3×) and 50000 | 52222.2 | 190000 and 20000 and 90000 and 10000 (3×) and 70000 and 40000 and 30000 | 37777.8 | 50000 (2×) and 20000 and 80000 and 10000 (3×) and 40000 and 70000 | 43333.3 | 40000 and 20000 (2×) and 90000 and 10000 (2×) and 50000 and 70000 and 80000 | 8288.89 | 3000 and 1000 and 600 and 10000 (5×) and 20000 | 21277778 | 1600000 and 1000000 and 900000 and 30000000 (2×) and 21000000 and 9000000 and 70000000 and 28000000 | 246888889 | 100000000 and 150000000 and 62000000 and 140000000 and 350000000 (2×) and 410000000 and 280000000 and 380000000 | 155211111 | 10000000 and 20000000 and 6900000 and 130000000 and 170000000 and 230000000 (2×) and 300000000 (2×) |
| C=C[C@]1(C)CC[C@@H](C(=C)C)[C@H](c2ccc(O)cc2)C1 [(1R,3S,4S)-cyclobakuchiol B] | 24444.4 | 70000 and 30000 (2×) and 10000 (3×) and 20000 (3×) | 30000 | 60000 and 50000 (2×) and 20000 (3×) and 10000 (2×) and 30000 | 41111.1 | 40000 (3×) and 30000 (2×) and 80000 (2×) and 20000 and 10000 | 58888.9 | 30000 (2×) and 40000 and 20000 and 10000 (2×) and 250000 and 80000 and 60000 | 12633.3 | 1000 (2×) and 1700 and 10000 (3×) and 20000 (2×) and 40000 | 25455556 | 2000000 (2×) and 300000 and 80000000 and 30000000 and 16000000 and 40000000 and 8800000 and 50000000 | 275666667 | 100000000 and 160000000 and 61000000 and 430000000 and 420000000 and 440000000 and 180000000 and 300000000 and 390000000 | 208055556 | 35000000 and 20000000 and 27500000 and 320000000 and 390000000 and 350000000 and 250000000 and 280000000 and 200000000 |
| C=C[C@]1(C)CC[C@@H](C(C)(C)O)[C@H](c2ccc(O)cc2)C1 [(1R,3S,4S)-cyclobakuchiol D] | 23333.3 | 30000 (4×) and 40000 and 20000 and 10000 (3×) | 46666.7 | 100000 and 30000 and 80000 and 20000 and 10000 (2×) and 50000 (2×) and 70000 | 42222.2 | 40000 (2×) and 30000 and 90000 and 10000 (2×) and 20000 and 80000 and 60000 | 51111.1 | 100000 (2×) and 10000 (3×) and 40000 and 20000 and 90000 and 80000 | 10344.4 | 600 and 2000 and 500 and 20000 (3×) and 10000 (3×) | 25855556 | 2700000 and 4000000 and 1000000 and 30000000 (2×) and 10000000 and 80000000 and 25000000 and 50000000 | 191111111 | 80000000 and 50000000 (2×) and 300000000 (2×) and 250000000 (3×) and 190000000 | 140200000 | 90000000 and 14000000 and 7800000 and 140000000 and 130000000 and 100000000 and 210000000 and 280000000 and 290000000 |
| C=C[C@@](C)(/C=C/c1ccc(O)cc1)CCC=C(C)C [天然型バクチオール] | – | 10000 (4×) and 30000 (3×) and 40000 (2×) | 22222.2 | 50000 and 10000 (5×) and 40000 (2×) and 20000 | 25555.6 | 50000 and 20000 and 40000 and 10000 (3×) and 30000 (3×) | 31111.1 | 30000 (2×) and 20000 (2×) and 40000 (2×) and 10000 (2×) and 80000 | – | 900 and 300 and 1100 and 30000 (2×) and 10000 (3×) and 50000 | 14411111 | 300000 and 1500000 and 900000 and 7000000 and 16000000 and 9000000 and 20000000 and 5000000 and 70000000 | 220000000 | 50000000 and 74000000 and 26000000 and 320000000 and 280000000 and 330000000 and 260000000 and 290000000 and 350000000 | 150111111 | 10000000 and 29000000 and 52000000 and 150000000 and 240000000 and 210000000 and 200000000 (2×) and 260000000 |

From PMC7997032, “Organic synthesis and anti-influenza A virus activity of cyclobakuchiols A, B, C, and D” (PLoS ONE, 2021)
